The results in this text go back to PMC7180718, “Synthesis, Docking Studies and Biological Activity of New Benzimidazole- Triazolothiadiazine Derivatives as Aromatase Inhibitor” (Molecules, 2020).

Read-outs that look alike come from different tables or passages of the source. Some results are limits rather than exact numbers.

Data set [1] concerns MCF-7 breast cancer cell line. The data set can be described thus: MTT cytotoxicity assay, MCF-7. The class given is cell-based, human. How it is done: (§1) The newly synthesized compounds were evaluated for their in vitro anticancer potential against MCF-7 breast cancer cell lines by MTT assay using cisplatin as a reference standard. The 50% inhibitory concentration (IC50) values were determined for these compounds. In addition, the cytotoxic activities of compounds 5c, 5e, 5k, and 5m were assessed against healthy NIH3T3 [25] cells, in order to express the selectivity toward carcinogenic cells. The IC50 values of test compounds were determined as the mean IC50 of 4 independent experiments.
(§2) The anticancer activity of compounds 5a–5p were screened according to the MTT assays. The MTT assays were performed as previously described. Cisplatin was used as the reference drug for the MCF7 cell line in the MTT assays.

The next data set deals with NIH3T3 cells. Put plainly: MTT cytotoxicity assay, healthy NIH3T3 cells. The class given is cell-based. How it is done: as §1, §2
Data set [2] deals with T1, recombinant human aromatase (Homo sapiens, UniProt P11511).
T1 construct: purchased Bio Vision
T1 sequence (P11511 1-503): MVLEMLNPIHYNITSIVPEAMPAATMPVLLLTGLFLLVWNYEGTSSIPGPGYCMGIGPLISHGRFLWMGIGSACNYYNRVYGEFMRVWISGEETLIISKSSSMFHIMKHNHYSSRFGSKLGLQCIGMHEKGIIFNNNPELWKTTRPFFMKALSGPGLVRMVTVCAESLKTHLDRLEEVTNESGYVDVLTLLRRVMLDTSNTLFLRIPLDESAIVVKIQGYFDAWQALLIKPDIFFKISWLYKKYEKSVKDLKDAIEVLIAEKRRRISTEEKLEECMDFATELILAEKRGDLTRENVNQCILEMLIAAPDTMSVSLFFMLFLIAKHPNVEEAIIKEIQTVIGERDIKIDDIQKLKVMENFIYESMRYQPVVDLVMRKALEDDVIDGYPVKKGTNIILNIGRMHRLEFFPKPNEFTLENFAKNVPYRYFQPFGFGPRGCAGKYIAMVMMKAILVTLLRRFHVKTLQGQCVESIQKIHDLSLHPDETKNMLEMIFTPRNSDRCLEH
The data set can be described thus: Fluorometric aromatase (CYP19A) inhibitor screening kit (Bio Vision). Type of data set: biochemical. To be noted: read-out: IC50 Aromatase Inhibition.

Setting [3] is: fluorometric kit, letrozole as reference.

For the compound `N#Cc1ccc(C2=Nn3c(nnc3-c3ccc(-c4nc5cc(Cl)ccc5[nH]4)cc3)SC2)cc1` [Compound 5m, 3-(4-(5-chloro-1H-benzo[d]imidazol-2-yl)phenyl)-6-(4-cyanophenyl)-7H-[1,2,4]triazole [3,4-b][1,3,4] thiadiazine], the results for the IC50 (in data set [1] (n = 4); in the data set with NIH3T3 cells (n = 4); in data set [2] (setting [3])) were 0.018 ± 0.001 µM, at least 1000 µM and 1.56 ± 0.064 µM, respectively. As to `Clc1ccc2[nH]c(-c3ccc(-c4nnc5n4N=C(c4ccccc4)CS5)cc3)nc2c1` [Compound 5i, 3-(4-(5-chloro-1H-benzo[d]imidazol-2-yl)phenyl)-6-phenyl-7H-[1,2,4]triazole[3,4-b][1,3,4] thiadiazine], in data set [1] (n = 4), half-maximal inhibition (IC50) was put at 0.205 ± 0.005 µM. On the same count and under the same terms, the figure for `Cc1ccc(C2=Nn3c(nnc3-c3ccc(-c4nc5cc(Cl)ccc5[nH]4)cc3)SC2)cc1` [Compound 5l, 3-(4-(5-chloro-1H-benzo[d]imidazol-2-yl)phenyl)-6-(4-methylphenyl)-7H-[1,2,4]triazole [3,4-b][1,3,4] thiadiazine] is 0.352 ± 0.019 µM. In the case of `Brc1ccc(C2=Nn3c(nnc3-c3ccc(-c4nc5ccccc5[nH]4)cc3)SC2)cc1` [Compound 5f, 3-(4-(1H-benzo[d]imidazol-2-yl)phenyl)-6-(4-bromophenyl)-7H-[1,2,4]triazole[3,4-b][1,3,4] thiadiazine], half-maximal inhibition in data set [1] (n = 4) (IC50) required 0.318 ± 0.019 µM.

In the case of `Clc1ccc2[nH]c(-c3ccc(-c4nnc5n4N=C(c4ccc(Br)cc4)CS5)cc3)nc2c1` [Compound 5n, 3-(4-(5-chloro-1H-benzo[d]imidazol-2-yl)phenyl)-6-(4-bromophenyl)-7H-[1,2,4]triazole [3,4-b][1,3,4] thiadiazine], inhibition in data set [1] (n = 4) was half-maximal at 0.264 ± 0.011 µM (IC50). Take `c1ccc(C2=Nn3c(nnc3-c3ccc(-c4nc5ccccc5[nH]4)cc3)SC2)cc1` [Compound 5a, 3-(4-(1H-benzo[d]imidazol-2-yl)phenyl)-6-phenyl-7H-[1,2,4]triazole[3,4-b][1,3,4] thiadiazine]: in data set [1] (n = 4), it took 0.142 ± 0.007 µM to reach half-maximal inhibition (IC50). For `Clc1ccc(C2=Nn3c(nnc3-c3ccc(-c4nc5ccccc5[nH]4)cc3)SC2)c(Cl)c1` [Compound 5h, 3-(4-(1H-benzo[d]imidazol-2-yl)phenyl)-6-(2,4-dichlorophenyl)-7H-[1,2,4]triazole[3,4-b] [1,3,4] thiadiazine], in data set [1] (n = 4), 0.342 ± 0.017 µM corresponded to half-maximal inhibition (IC50). For `Fc1ccc(C2=Nn3c(nnc3-c3ccc(-c4nc5ccccc5[nH]4)cc3)SC2)cc1` [Compound 5c, 3-(4-(1H-benzo[d]imidazol-2-yl)phenyl)-6-(4-fluorophenyl)-7H-[1,2,4]triazole[3,4-b][1,3,4] thiadiazine], the IC50 – broadly, the concentration that inhibits the measured activity by half – was found to be 0.119 ± 0.005 µM in data set [1] (n = 4), 81.8 ± 2.4 µM in the data set on NIH3T3 cells (n = 4) and 1.72 ± 0.042 µM in data set [2] (setting [3]). For the compound `Fc1ccc(C2=Nn3c(nnc3-c3ccc(-c4nc5ccccc5[nH]4)cc3)SC2)c(F)c1` [Compound 5g, 3-(4-(1H-benzo[d]imidazol-2-yl)phenyl)-6-(2,4-difluorohenyl)-7H-[1,2,4]triazole [3,4-b][1,3,4] thiadiazine], the IC50 in data set [1] (n = 4) was 0.245 ± 0.004 µM. In data set [1] (n = 4), `Cc1ccc(C2=Nn3c(nnc3-c3ccc(-c4nc5ccccc5[nH]4)cc3)SC2)cc1` [Compound 5d, 3-(4-(1H-benzo[d]imidazol-2-yl)phenyl)-6-(4-methylphenyl)-7H-[1,2,4]triazole[3,4-b][1,3,4] thiadiazine] gave an IC50 of 0.194 ± 0.006 µM.

As to `N#Cc1ccc(C2=Nn3c(nnc3-c3ccc(-c4nc5ccccc5[nH]4)cc3)SC2)cc1` [Compound 5e, 3-(4-(1H-benzo[d]imidazol-2-yl)phenyl)-6-(4-cyanophenyl)-7H-[1,2,4]triazole[3,4-b][1,3,4] thiadiazine], the melting point – broadly, the temperature of the solid-liquid transition – was in the range of 259.3 to 263.1 °C. Further, in data set [1] (Homo sapiens, MCF7, n = 4), the concentration for half-maximal inhibition (IC50) amounted to 0.016 ± 0.001 µM. Also, the IC50 in the data set on NIH3T3 cells (Mus musculus, NIH3T3, n = 4) was at least 1000 µM. Also, the 50% inhibitory concentration (IC50) in data set [2] was 0.032 ± 0.001 µM.

For the compound `Clc1ccc(C2=Nn3c(nnc3-c3ccc(-c4nc5cc(Cl)ccc5[nH]4)cc3)SC2)c(Cl)c1` [Compound 5p, 3-(4-(5-chloro-1H-benzo[d]imidazol-2-yl)phenyl)-6-(2,4-dichlorophenyl)-7H-[1,2,4]triazole [3,4-b][1,3,4] thiadiazine], in data set [1] (n = 4), it took 0.147 ± 0.001 µM to reach half-maximal inhibition (IC50). Turning to `Fc1ccc(C2=Nn3c(nnc3-c3ccc(-c4nc5cc(Cl)ccc5[nH]4)cc3)SC2)cc1` [Compound 5k, 3-(4-(5-chloro-1H-benzo[d]imidazol-2-yl)phenyl)-6-(4-fluorophenyl)-7H-[1,2,4]triazole [3,4-b][1,3,4] thiadiazine], the IC50 was 0.11 ± 0.005 µM in data set [1] (n = 4), 77.6 ± 2.1 µM in the data set with NIH3T3 cells (n = 4) and 2.28 ± 0.106 µM in data set [2] (setting [3]). In turn, `Fc1ccc(C2=Nn3c(nnc3-c3ccc(-c4nc5cc(Cl)ccc5[nH]4)cc3)SC2)c(F)c1` [Compound 5o, 3-(4-(5-chloro-1H-benzo[d]imidazol-2-yl)phenyl)-6-(2,4-difluorohenyl)-7H-[1,2,4]triazole [3,4-b][1,3,4] thiadiazine] yielded a concentration for half-maximal inhibition (IC50) in data set [1] (n = 4) of 0.373 ± 0.011 µM. For the compound `N.N.[Cl][Pt][Cl]` [Cisplatin, reference compound], the IC50 in data set [1] (n = 4) is 0.02 ± 0.009 µM; in the data set on NIH3T3 cells (n = 4) it was at least 1000 µM. On to `Clc1ccc(C2=Nn3c(nnc3-c3ccc(-c4nc5cc(Cl)ccc5[nH]4)cc3)SC2)cc1` [Compound 5j, 3-(4-(5-chloro-1H-benzo[d]imidazol-2-yl)phenyl)-6-(4-chlorophenyl)-7H-[1,2,4]triazole [3,4-b][1,3,4] thiadiazine], for which half-maximal inhibition in data set [1] (n = 4) (IC50) was put at 0.258 ± 0.011 µM.
